Experiments:
H5N1 virions = format: binding, Avian influenza A virus (H5N1); details: Averionol to Istrocyanidin bound
Dengue-2 virus particles = format: binding; details: Den-2; Averionol to Istrocyanidin bound

How did the “Aver:Istro Ratio” value (H5N1 virions) turn out when `COc1cc(OC)c2c(=O)c(O)c(-c3ccc(OC)c(OC)c3)oc2c1` [Averionol] was run?
The value was 14.0.

And the “Aver:Istro Ratio” value (Dengue-2 virus particles)?
The value was 3.7.

Source: patent publication US20090149530A1 (priority 2007, published 2009)
